# Measurements as given in US8188102B2, “Amide derivative for inhibiting the growth of cancer cells” (Hanmi Holdings Co., Ltd., priority 2007, dated 2012).
# Tests used:
# [1] = tested on: A431 skin cancer cell line; experiment: Cancer cell growth inhibition, A431 (SRB); settings: Homo sapiens, A-431, 72 h, read-out: ID50 (nM) A431
# [2] = tested on: SK-Br3 breast cancer cell line; experiment: Cancer cell growth inhibition, SK-Br3 (SRB); settings: Homo sapiens, SK-BR-3, 72 h, read-out: ID50 (nM) SK-Br3
smiles,measurement,setting,value
"C=C(NC(C)=O)C(=O)N1CCC(Oc2cc3c(Nc4ccc(Cl)c(Cl)c4F)ncnc3cc2OC)CC1 [Example 91, N-(3-(4-(4-(3,4-dichloro-2-fluorophenylamino)-7-methoxyquinazolin-6-yloxy)piperidin-1-yl)-3-oxoprop-1-en-2-yl)acetamide]",IC50,[1],50 nM
same,IC50,[2],194 nM
"COc1cc2ncnc(Nc3ccc(F)c(Cl)c3F)c2cc1O[C@H]1CCN(C(=O)C#CCCN2CCN(C)CC2)C1 [Example 4, 1-((3S)-3-(4-(3-chloro-2,4-difluorophenylamino)-7-methoxyquinazolin-6-yloxy)pyrrolidin-1-yl)-5-(4-methylpiperazin-1-yl)pent-2-yn-1-one]",IC50,[1],53 nM
same,IC50,[2],604 nM
"C=CC(=O)N1CCC(Oc2cc3c(Nc4cccc(Cl)c4C)ncnc3cc2OC)CC1 [Example 63, 1-(4-(4-(3-chloro-2-methylphenylamino)-7-methoxyquinazolin-6-yloxy)piperidin-1-yl)pro-2-pen-1-one]",IC50,[1],9 nM
same,IC50,[2],1 nM
"C=CC(=O)N1CCC(Oc2cc3c(Nc4ccc(Cl)cc4O)ncnc3cc2OC)CC1 [Example 53, 1-(4-(4-(4-chloro-2-hydroxyphenylamino)-7-methoxyquinazolin-6-yloxy)piperidin-1-yl)pro-2-pen-1-one]",IC50,[1],32 nM
same,IC50,[2],21 nM
"COc1cc2ncnc(Nc3cccc(Cl)c3F)c2cc1O[C@H]1CCN(C(=O)/C=C/CN(C)C)C1 [Example 96, (E)-1-((3S)-3-(4-(3-chloro-2-fluorophenylamino)-7-methoxyquinazolin-6-yloxy)pyrrolidin-1-yl)-4-(dimethylamino)but-2-en-1-one]",IC50,[1],8 nM
same,IC50,[2],46 nM
"C=CC(=O)N1CCC(Oc2cc3c(Nc4ccc(Cl)c(C#N)c4)ncnc3cc2OC)CC1 [Example 67, 5-(6-(1-acryloylpiperidin-4-yloxy)-7-methoxyquinazolin-4-ylamino)-2-chlorobenzonitrile]",IC50,[1],35 nM
same,IC50,[2],10 nM
"COc1cc2ncnc(Nc3ccc(F)c(Cl)c3F)c2cc1OC1CCN(C(=O)/C=C\CN(C)C)CC1 [Example 113, (Z)-1-(4-(4-(3-chloro-2,4-difluorophenylamino)-7-methoxyquinazolin-6-yloxy)piperidin-1-yl)-4-(dimethylamino)but-2-en-1-one]",IC50,[1],6 nM
same,IC50,[2],17 nM
"C=CC(=O)N1CC[C@@H](Oc2cc3c(Nc4ccc(Br)cc4F)ncnc3cc2OC)C[C@@H]1C(N)=O [Example 140, (2R,4R)-1-acryloyl-4-(4-(4-bromo-2-fluorophenylamino)-7-methoxyquinazolin-6-yloxy)piperidin-2-carboxamide]",IC50,[1],1.1 nM
same,IC50,[2],0.3 nM
"COC(=O)/C=C\C(=O)N1CCC(Oc2cc3c(Nc4ccc(Cl)c(Cl)c4F)ncnc3cc2OC)CC1 [Example 84, (Z)-methyl 4-(4-(4-(3,4-dichloro-2-fluorophenylamino)-7-methoxyquinazolin-6-yloxy)piperidin-1-yl)-4-oxobut-2-enoate]",IC50,[1],8 nM
same,IC50,[2],21 nM
"C=CC(=O)Nc1cccc(Nc2ncnc3cc(OC)c(OC4CCN(C(=O)C=C)CC4)cc23)c1 [Example 75, N-(3-(6-(1-acryloylpiperidin-4-yloxy)-7-methoxyquinazolin-4-ylamino)phenyl)acrylamide]",IC50,[1],400 nM
same,IC50,[2],50 nM
"C=CC(=O)N1CC[C@H](Oc2cc3c(Nc4ccc(F)c(Cl)c4F)ncnc3cc2OC)C[C@H]1C(=O)NCCCO [Example 131, (2S,4S)-1-acryloyl-4-(4-(3-chloro-2,4-difluorophenylamino)-7-methoxyquinazolin-6-yloxy)-N-(3-hydroxypropyl)piperidin-2-carboxamide]",IC50,[1],20 nM
same,IC50,[2],0.5 nM
"C/C=C/C(=O)N1CC[C@H](Oc2cc3c(Nc4ccc(F)c(Cl)c4F)ncnc3cc2OC)C1 [Example 2, (E)-1-((3S)-3-(4-(3-chloro-2,4-difluorophenylamino)-7-methoxyquinazolin-6-yloxy)pyrrolidin-1-yl)but-2-en-1-one]",IC50,[1],85 nM
same,IC50,[2],316 nM
"C=CC(=O)N1CCC(Oc2cc3c(Nc4ccc(F)c(F)c4F)ncnc3cc2OC)CC1 [Example 45, 1-(4-(7-methoxy-4-(2,3,4-trifluorophenylamino)quinazolin-6-yloxy)piperidin-1-yl)pro-2-pen-1-one]",IC50,[1],43 nM
same,IC50,[2],3 nM
"C=CC(=O)N1CCC(Oc2cc3c(Nc4cccc(C(F)(F)F)c4F)ncnc3cc2OC)CC1 [Example 65, 1-(4-(4-(2-fluoro-3-(trifluoromethyl)phenylamino)-7-methoxyquinazolin-6-yloxy)piperidin-1-yl)pro-2-pen-1-one]",IC50,[1],11 nM
same,IC50,[2],15 nM
"COc1cc2ncnc(Nc3ccc(F)c(Cl)c3F)c2cc1OC1CN(C(=O)/C=C/Cl)C1 [Example 33, (E)-3-chloro-1-(3-(4-(3-chloro-2,4-difluorophenylamino)-7-methoxyquinazolin-6-yloxy)azetidin-1-yl)pro-2-pen-1-one]",IC50,[1],44 nM
same,IC50,[2],35 nM
"C=CC(=O)N1CC[C@H](Oc2cc3c(Nc4ccc(F)c(Cl)c4F)ncnc3cc2OC)C[C@H]1C(=O)NCCC [Example 123, (2S,4S)-1-acryloyl-4-(4-(3-chloro-2,4-difluorophenylamino)-7-methoxyquinazolin-6-yloxy)-N-propylpiperidin-2-carboxamide]",IC50,[1],12 nM
same,IC50,[2],5 nM
"COc1cc2ncnc(Nc3ccc(F)c(Cl)c3F)c2cc1OC1CCN(C(=O)/C=C/C(=O)NO)CC1 [Example 88, (E)-4-(4-(4-(3-chloro-2,4-difluorophenylamino)-7-methoxyquinazolin-6-yloxy)piperidin-1-yl)-N-hydroxy-4-oxobut-2-enamide]",IC50,[1],187 nM
same,IC50,[2],> 1000 nM
"C=CC(=O)N1CCC(Oc2cc3c(N[C@H](C)c4ccccc4)ncnc3cc2OC)CC1 [Example 35, (R)-1-(4-(7-methoxy-4-(1-phenylethylamino)quinazolin-6-yloxy)piperidin-1-yl)pro-2-pen-1-one]",IC50,[1],514 nM
same,IC50,[2],3 nM
"C=CC(=O)N1CCC(Oc2cc3c(Nc4ccc(F)c(C#N)c4)ncnc3cc2OC)CC1 [Example 66, 5-(6-(1-acryloylpiperidin-4-yloxy)-7-methoxyquinazolin-4-ylamino)-2-fluorobenzonitrile]",IC50,[1],8 nM
same,IC50,[2],1 nM
"C=C(CN(C)C)C(=O)N1CCC(Oc2cc3c(Nc4ccc(F)c(Cl)c4F)ncnc3cc2OC)CC1 [Example 109, 1-(4-(4-(3-chloro-2,4-difluorophenylamino)-7-methoxyquinazolin-6-yloxy)piperidin-1-yl)-2-((dimethylamino)methyl)prop-2-en-1-one]",IC50,[1],2.7 nM
same,IC50,[2],3.5 nM
"C=CC(=O)N1CC[C@H](Oc2cc3c(Nc4ccc5c(cnn5Cc5cccc(F)c5)c4)ncnc3cc2OC)C1 [Example 12, 1-((3S)-3-(4-(1-(3-fluorobenzyl)-1H-indazol-5-ylamino)-7-methoxyquinazolin-6-yloxy)pyrrolidin-1-yl)pro-2-pen-1-one]",IC50,[1],19 nM
same,IC50,[2],3 nM
"C=C(CN(C)C)C(=O)N1CCC(Oc2cc3c(Nc4ccc(Cl)c(Cl)c4F)ncnc3cc2OC)CC1 [Example 111, 1-(4-(4-(3,4-dichloro-2-fluorophenylamino)-7-methoxyquinazolin-6-yloxy)piperidin-1-yl)-2-((dimethylamino)methyl)prop-2-en-1-one]",IC50,[1],4 nM
same,IC50,[2],6 nM
"C=CC(=O)N1CCC(Oc2cc3c(Nc4ccc(F)c(Cl)c4F)ncnc3cc2OCCCN2CCOCC2)CC1 [Example 118, 1-(4-(4-(3-chloro-2,4-difluorophenylamino)-7-(3-morpholinopropoxy)quinazolin-6-yloxy)piperidin-1-yl)prop-2-en-1-one]",IC50,[1],4 nM
same,IC50,[2],2 nM
"C=CC(=O)N1CC[C@H](Oc2cc3c(Nc4ccc(F)c(Cl)c4F)ncnc3cc2OC)C[C@H]1C(=O)NC(C)C [Example 124, (2S,4S)-1-acryloyl-4-(4-(3-chloro-2,4-difluorophenylamino)-7-methoxyquinazolin-6-yloxy)-N-isopropylpiperidin-2-carboxamide]",IC50,[1],7.5 nM
same,IC50,[2],2.8 nM
"C=C(CN1CCCCC1)C(=O)N1CC(Oc2cc3c(Nc4cccc(Cl)c4F)ncnc3cc2OC)C1 [Example 107, 1-(3-(4-(3-chloro-2-fluorophenylamino)-7-methoxyquinazolin-6-yloxy)azetidin-1-yl)-2-(piperidin-1-ylmethyl)prop-2-en-1-one]",IC50,[1],2.4 nM
same,IC50,[2],0.7 nM
"COC(=O)/C=C\C(=O)N1CCC(Oc2cc3c(Nc4ccc(F)c(Cl)c4F)ncnc3cc2OC)CC1 [Example 83, (Z)-methyl 4-(4-(4-(3-chloro-2,4-difluorophenylamino)-7-methoxyquinazolin-6-yloxy)piperidin-1-yl)-4-oxobut-2-enoate]",IC50,[1],9 nM
same,IC50,[2],23 nM
"COc1cc2ncnc(Nc3ccc(F)c(Cl)c3F)c2cc1O[C@H]1CCN(C(=O)/C=C/CN(C)C)C1 [Example 92, (E)-1-((3S)-3-(4-(3-chloro-2,4-difluorophenylamino)-7-methoxyquinazolin-6-yloxy)pyrrolidin-1-yl)-4-(dimethylamino)but-2-en-1-one]",IC50,[1],4 nM
same,IC50,[2],8 nM
"COc1cc2ncnc(Nc3ccc(F)c(Cl)c3F)c2cc1OC1CN(C(=O)/C=C/CN(C)C)C1 [Example 101, (E)-1-(3-(4-(3-chloro-2,4-difluorophenylamino)-7-methoxyquinazolin-6-yloxy)azetidin-1-yl)-4-(dimethylamino)but-2-en-1-one]",IC50,[1],36 nM
same,IC50,[2],11 nM
"CN(C)C/C=C/C(=O)N1CC[C@H](Oc2ccc3ncnc(Nc4ccc(F)c(Cl)c4F)c3c2)C1 [Example 97, (E)-1-((3S)-3-(4-(3-chloro-2,4-difluorophenylamino)quinazolin-6-yloxy)pyrrolidin-1-yl)-4-(dimethylamino)but-2-en-1-one]",IC50,[1],25 nM
same,IC50,[2],94 nM
"C=CC(=O)N1CCC(Oc2cc3c(Nc4ccc(Cl)c(C)c4)ncnc3cc2OC)CC1 [Example 60, 1-(4-(4-(4-chloro-3-methylphenylamino)-7-methoxyquinazolin-6-yloxy)piperidin-1-yl)pro-2-pen-1-one]",IC50,[1],93 nM
same,IC50,[2],261 nM
